Target: T1, HaHSL (Falsihalocynthiibacter arcticus, UniProt A0A126UZB4)
T1 construct: gene RC74_09005; full-length ORF (789 bp); mass peak 31,740; monomer; catalytic Ser138, Glu216, His244
Assay: p-nitrophenol release at […] nm, Lineweaver-Burk
Format: biochemical
Details: free enzyme; 20 mM Tris-HCl, 100 mM NaCl, pH 7.4 (spectroscopic analyses); standard assay pH 8.0, 25 °C

T1 sequence (A0A126UZB4 entry or part of it): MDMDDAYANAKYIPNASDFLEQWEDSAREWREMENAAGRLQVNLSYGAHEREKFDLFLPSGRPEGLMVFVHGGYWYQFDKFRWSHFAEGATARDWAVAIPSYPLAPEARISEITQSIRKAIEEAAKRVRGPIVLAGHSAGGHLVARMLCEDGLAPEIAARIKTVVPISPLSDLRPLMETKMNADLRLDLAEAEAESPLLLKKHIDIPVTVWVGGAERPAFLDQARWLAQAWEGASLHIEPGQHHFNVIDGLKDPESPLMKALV

Row | Km [µM] | Compound
1 | 210 | CC(=O)Oc1ccc([N+](=O)[O-])cc1 [p-nitrophenyl acetate]
2 | 1970 ± 530 | CCCC(=O)Oc1ccc([N+](=O)[O-])cc1 [p-nitrophenyl butyrate]
3 | 2320 ± 630 | CCCCCC(=O)Oc1ccc([N+](=O)[O-])cc1 [p-nitrophenyl hexanoate]

From paper PMC6921082, “Molecular Characterization of a Novel Cold-Active Hormone-Sensitive Lipase (HaHSL) from Halocynthiibacter Arcticus” (Biomolecules, 2019)
